According to patent publication US4919937A, “Percutaneous administration of tamoxifen” (priority 1984, dated 1990):

What was measured:
[1] = system: receptor molecules in cancerous mammary tumors; test: percutaneous application on the skin overlying cancerous mammary tumors; type: in vivo
[2] = tracer doses of tritiated 4-hydroxytamoxifen applied in alcoholic solution 24 hours before excision of cancerous breasts; type: in vivo; conditions: human, breast tissue, topical or ocular, read-out: portion of the radioactivity metabolized to unidentified products
[3] = system: protein structures corresponding to hormonal receptors; test: as above; type: in vivo
[4] = radioactive 4-hydroxytamoxifen applied on the skin of a healthy subject, urinary radioactivity in 15 days and circulating blood; type: in vivo
Excerpt: A small portion of the radioactivity is metabolized to unidentified products (3%). In parallel, this same product in radioactive form was applied on the skin of a healthy subject, and a calculation was made of the radioactivity appearing in the urine in 15 days following administration of the product. […] It is only as a secondary effect that it reaches the liver, where it is inactivated.

cutaneous absorption = type: in vivo; conditions: skin, topical or ocular; percutaneous; read-out: coefficient of cutaneous absorption
Excerpt: (§1) The daily doses of product to be administered are easy to calculate in terms of the absorption coefficients of the drugs and the doses which it is desired to obtain for 4-hydroxytamoxifen and progesterone at the level of their receptor molecules.

solubility in alcohol = type: physicochemical
Excerpt: as §1

[5] = passage through the liver; cited from earlier work
[6] = tamoxifen per os; 4-hydroxytamoxifen orally or parenterally, other than percutaneously; cited from earlier work
progesterone receptors = test: tracer doses of tritiated progesterone administered percutaneously under the same conditions; type: in vivo
Experimental: In another experiment, tracer doses of tritiated progesterone were administered under the same conditions as 4-hydroxytamoxifen.

progesterone receptor = conditions: common knowledge; cited from earlier work
[7] = cited from earlier work; for hepatic by-pass after percutaneous administration: alcoholic solution

SMILES: CC/C(=C(\c1ccc(O)cc1)c1ccc(OCCN(C)C)cc1)c1ccccc1 [4-hydroxytamoxifen, 1-[4-(2-N-dimethylaminoethoxy)phenyl]-1-(4-hydroxyphenyl)-2-phenylbut-1-(Z)-ene]
- passage through the cutaneous barrier and uptake on receptor molecules in tumors ([1]; 60% strength alcoholic solution): capable of passing through the cutaneous barrier and being taken up on the receptor molecules in these tumors
- metabolised at 24 h [2]: 3%
- form found at the hormonal receptors [3]: appeared in its original form at the level of the protein structures corresponding to hormonal receptors
- product in circulating blood ([4]; circulating blood): only traces of the product are detectable
- destruction of the product from urinary elimination ([4]; healthy subject, urine, 15 days): weak and gradual destruction of the product
- Fa (cutaneous absorption): ~1%
- solubility in alcohol (solubility in alcohol): soluble in alcohol
- metabolism/degradation after oral administration [5]: more rapidly degraded than tamoxifen
- harmful side effects: stimulation of the ovaries [6]: detrimental paradoxical stimulation of the ovaries

SMILES: CC(=O)[C@H]1CC[C@H]2[C@@H]3CCC4=CC(=O)CC[C@]4(C)[C@H]3CC[C@]12C [progesterone]
- radioactivity in the blood (progesterone receptors; blood): No radioactivity circulates in the blood
- uptake by specific receptors and inactivation (progesterone receptors; conclusion): taken up by specific receptors and that it is inactivated for the most part in situ
- form found, binding to the progesterone receptors and metabolism (progesterone receptors; tritiated, percutaneous, excised cancerous breast): appeared in its original form, partly bound to the progesterone receptors and partly metabolized
- metabolites in the urine (progesterone receptors; urine): various metabolites of progesterone appeared in the 56 hours following the experiment
- Fa (cutaneous absorption): 10%
- solubility in alcohol (solubility in alcohol): soluble in alcohol
- metabolism/degradation after oral administration [5]: completely destroyed during its passage through the liver
- action on the progesterone receptor (progesterone receptor): binds to is own receptor, which it activates
- topical retention ([7]; alcoholic solution or 60% strength aqueous alcoholic gel): 48 h
- hepatic by-pass after percutaneous administration [7]: hepatic by-passes thus produced were demonstrated

SMILES: CC/C(=C(\c1ccccc1)c1ccc(OCCN(C)C)cc1)c1ccccc1 [tamoxifen, 1-[4-(2-N-dimethylaminoethoxy)phenyl]-1,2diphenylbut-1-(Z)-ene]
- activation to the 4-hydroxy derivative by the percutaneous route ([1]; percutaneous, breast): cannot be activated to its 4-hydroxy derivative by the percutaneous route
- metabolism/degradation after oral administration [5]: converted during its passage through the liver to numerous metabolites
- harmful side effects: stimulation of the ovaries [6]: a paradoxical stimulation of the ovaries

SMILES: C[C@]12CC[C@H]3[C@@H](CCC4=CC(=O)CC[C@@]43C)[C@@H]1CC[C@@H]2O [testosterone]
- hepatic by-pass after percutaneous administration [7]: hepatic by-passes thus produced were demonstrated
